# From patent US20220331303A1, “USE OF AN OREXIN 2 RECEPTOR AGONIST FOR THE TREATMENT OF EXCESSIVE SLEEPINESS” (Takeda Pharmaceutical Company Limited, priority 2019, published 2022)
# Like-named read-outs stand apart in the source and are kept apart here.
# Assay: Single-dose plasma PK of Compound A in subjects with OSA
# Format: in vivo, human
# Details: for half-life: read-out: t½, z (converted)
# Protocol: The treatment periods began on Day 1 of Treatment Period 1 (Study Day 1) with Treatment Periods 2 and 3 commencing on Study Days 3 and 5, respectively. In the morning of Day 1 of Treatment Period 1, eligible subjects were randomized to 1 of the 6 sequence groups as listed in Table 36. After randomization, the subject was dosed in 3 treatment periods according to the order defined by the sequence group to which he/she was randomized. On Day 1 of each treatment period, Compound A or placebo was administered as a single 9-hour IV infusion commencing at approximately 08:00. The infusion was terminated at approximately 17:00. On Day 1 of each treatment period, four 40-minute maintenance of wakefulness test (MWT) sessions was performed at 2, 4, 6, and 8 hours after the start of the infusion. Subjects were required to stay awake in between the MWT sessions.
# On Day 1 of Treatment Period 1, all eligible subjects were randomized and received the first dose of study drug. Compound A or placebo was administered as a single 9-hour IV infusion commencing at approximately 08:00. On each dosing day (Study Days 1, 3, and 5), 40-minute MWT sessions were performed at 2, 4, 6, and 8 hours after the start of the infusion. There was a minimum 24-hour washout interval between the end of the infusion and the commencement of treatment in subsequent treatment periods to allow for complete elimination of the preceding treatment effect. The KSS and PVT were collected per the Schedule of Study Procedures. Blood samples for determination of Compound A plasma concentrations were collected predose and at specified time points postdose, Safety assessments were recorded. During the study, AEs were recorded, clinical laboratory tests, vital signs, and safety ECGs were obtained. Study Days 2, 4, and 6 were washout days. Subjects were discharged from the unit following completion of study exit procedures in the afternoon of Study Day 6 (Day 2 of Treatment Period 3). Subjects were contacted by telephone approximately 7 days (±2 days) following unit discharge for a safety check.
# Blood samples used for PK analysis of Compound A was collected according to Table 38.
# [1] = human, intravenous, 44 mg single dose, subjects with OSA, plasma, mean (PK set)
# [2] = human, intravenous, 112 mg single dose, subjects with OSA, plasma, mean (PK set)
compound,measurement,setting,value
"COC(=O)N1CCC[C@H](NS(C)(=O)=O)[C@@H]1CO[C@H]1CC[C@@H](c2ccccc2)CC1 [Compound A, methyl (2R,3S)-3-((methylsulfonyl)amino)-2-(((cis-4-phenylcyclohexyl)oxy)methyl)piperidine-1-carboxylate]",Plasma Concentration Mean,"44 mg, 0 h After Start of Infusion",BLQ
same,Plasma Concentration Mean,"44 mg, 0.17 h From End of Infusion",53.69 ng/mL
same,Plasma Concentration Mean,"44 mg, 1 h After Start of Infusion",59.80 ng/mL
same,Plasma Concentration Mean,"44 mg, 1 h From End of Infusion",29.90 ng/mL
same,Plasma Concentration Mean,"44 mg, 3 h After Start of Infusion",92.43 ng/mL
same,Plasma Concentration Mean,"44 mg, 4 h From End of Infusion",15.22 ng/mL
same,Plasma Concentration Mean,"44 mg, 5 h After Start of Infusion",101.7 ng/mL
same,Plasma Concentration Mean,"44 mg, 7 h After Start of Infusion",86.37 ng/mL
same,Plasma Concentration Mean,"44 mg, 9 h After Start of Infusion",90.42 ng/mL
same,Plasma Concentration Mean,"44 mg, 15 h From End of Infusion (24 hours from start of infusion)",2.462 ng/mL
same,Ceoi,"112 mg single dose, subjects with OSA, plasma, mean (PK set)",211.6 ng/mL
same,Plasma Concentration Mean,"112 mg, 0 h After Start of Infusion",BLQ
same,Plasma Concentration Mean,"112 mg, 0.17 h From End of Infusion",139.3 ng/mL
same,Plasma Concentration Mean,"112 mg, 1 h After Start of Infusion",162.9 ng/mL
same,Plasma Concentration Mean,"112 mg, 1 h From End of Infusion",77.87 ng/mL
same,Plasma Concentration Mean,"112 mg, 3 h After Start of Infusion",208.7 ng/mL
same,Plasma Concentration Mean,"112 mg, 4 h From End of Infusion",34.12 ng/mL
same,Plasma Concentration Mean,"112 mg, 5 h After Start of Infusion",222.3 ng/mL
same,Plasma Concentration Mean,"112 mg, 7 h After Start of Infusion",208.9 ng/mL
same,Plasma Concentration Mean,"112 mg, 9 h After Start of Infusion",211.6 ng/mL
same,Plasma Concentration Mean,"112 mg, 15 h From End of Infusion (24 hours from start of infusion)",5.962 ng/mL
same,AUC(0-inf),[1],899 ng·h/mL
same,AUC(0-t),[1],884 ng·h/mL
same,Cmax,[1],102 ng/mL
same,clearance,[1],860 mL/min
same,concentration at 9 h,"human, intravenous, 44 mg single dose, subjects with OSA, plasma, mean (PK set), read-out: Ceoi",90.4 ng/mL
same,half-life,[1],3.79 h
same,AUC(0-inf),[2],2060 ng·h/mL
same,AUC(0-t),[2],2040 ng·h/mL
same,Cmax,[2],230 ng/mL
same,clearance,[2],954 mL/min
same,half-life,[2],3.93 h
same,Vd,"human, plasma, intravenous, 44 mg, 44 mg single dose, subjects with OSA, plasma, mean (PK set), read-out: Vss",129 L
same,Vd,"human, plasma, intravenous, 44 mg, 44 mg single dose, subjects with OSA, plasma, mean (PK set), read-out: Vz",278 L
same,Vd,"human, plasma, intravenous, 112 mg, 112 mg single dose, subjects with OSA, plasma, mean (PK set), read-out: Vss",139 L
same,Vd,"human, plasma, intravenous, 112 mg, 112 mg single dose, subjects with OSA, plasma, mean (PK set), read-out: Vz",319 L
